From ChEMBL document CHEMBL5370592, “Synthesis and Structure-Activity Relationships of a New Class of Oxadiazoles Targeting DprE1 as Antitubercular Agents” (ACS Med Chem Lett, 2023)
Values after ≈ are worked out from the molar mass of the structure shown. Active and inactive are the calls of the source. The rule behind the calls is not given here.

Key:
[1] = system: Mycobacterium tuberculosis; assay: Induction of DNA damage in Mycobacterium tuberculosis H37Rv transfected with PradA-LUX reporter assessed as induction of radA reporter gene expression incubated for 12 days by bioluminescence analysis; assay type: functional, organism-based; conditions: time 12.0 day
[2] = system: Mycobacterium tuberculosis; assay: Antitubercular activity against Mycobacterium tuberculosis K04b00DS assessed as inhibition of bacterial growth incubated for 2 weeks; assay type: functional; conditions: 336 h
[3] = system: Mycobacterium tuberculosis; assay: Antitubercular activity against Mycobacterium tuberculosis H37Rv ATCC 27294 assessed as inhibition of bacterial growth cultured in Middlebrook 7H9/ADC/Tween 80 with cydC::aph medium for 2 weeks; assay type: functional; conditions: H37Rv ATCC 27294, 336 h
[4] = system: Mycobacterium tuberculosis; assay: Antitubercular activity against Mycobacterium tuberculosis K17b00DS assessed as inhibition of bacterial growth incubated for 2 weeks; assay type: functional; conditions: 336 h
[5] = system: Mycobacterium tuberculosis; assay: Antitubercular activity against Mycobacterium tuberculosis H37RV ATCC 27294 assessed as inhibition of bacterial growth cultured in Middlebrook 7H9/cholesterol/BSA/Tyloxapol medium for 2 weeks; assay type: functional; conditions: H37Rv ATCC 27294, 336 h
[6] = system: Mycobacterium tuberculosis; assay: Antitubercular activity against Mycobacterium tuberculosis H37Rv ATCC 27294 assessed as inhibition of bacterial growth cultured in Middlebrook 7H9/BSA/Tyloxapol with glucose medium for 2 weeks; assay type: functional; conditions: H37Rv ATCC 27294, 336 h
[7] = system: Mycobacterium tuberculosis; assay: Antitubercular activity against Mycobacterium tuberculosis K11b00DS assessed as inhibition of bacterial growth incubated for 2 weeks; assay type: functional; conditions: 336 h
[8] = system: Mycobacterium tuberculosis; assay: Antitubercular activity against Mycobacterium tuberculosis infected in mouse J774 cells assessed as decrease in colony forming unit enumeration on solid medium at 5XMIC measured after 7 days; assay type: functional, organism-based; conditions: time 7.0 day
[9] = system: Mycobacterium tuberculosis; assay: Antitubercular activity against Mycobacterium tuberculosis HN878 assessed as inhibition of bacterial growth incubated for 2 weeks; assay type: functional; conditions: HN878, 336 h
[10] = system: Mycobacterium tuberculosis; assay: Antitubercular activity against Mycobacterium tuberculosis H37Rv ATCC 27294 assessed as inhibition of bacterial growth incubated for 2 weeks; assay type: functional; conditions: H37Rv ATCC 27294, 336 h
[11] = Cytotoxicity against human HepG2 cells assessed as reduction in cell viability incubated for 24 hrs in DMEM/10% FBS supplemented with galactose by CellTiter-Glo luminescent assay; assay type: toxicity, cell-based
[12] = system: Mycobacterium tuberculosis; assay: Antitubercular activity against Mycobacterium tuberculosis K05b00DS assessed as inhibition of bacterial growth incubated for 2 weeks; assay type: functional; conditions: 336 h
[13] = system: Mycobacterium tuberculosis; assay: Antitubercular activity against Mycobacterium tuberculosis K13b00DS assessed as inhibition of bacterial growth incubated for 2 weeks; assay type: functional; conditions: 336 h
[14] = system: Mycobacterium tuberculosis; assay: Antitubercular activity against Mycobacterium tuberculosis H37Rv ATCC 27294 assessed as inhibition of bacterial growth cultured in Middlebrook 7H9/DPPC/cholesterol/BSA/Tyloxapol medium for 2 weeks; assay type: functional; conditions: H37Rv ATCC 27294, 336 h
[15] = system: Mycobacterium tuberculosis; assay: Antitubercular activity against Mycobacterium tuberculosis NIH_G12 assessed as inhibition of bacterial growth incubated for 2 weeks; assay type: functional; conditions: NIH_G12, 336 h
[16] = system: Mycobacterium tuberculosis; assay: Antitubercular activity against Mycobacterium tuberculosis K07b00DS assessed as inhibition of bacterial growth incubated for 2 weeks; assay type: functional; conditions: 336 h
[17] = system: Mycobacterium tuberculosis; assay: Antitubercular activity against Mycobacterium tuberculosis H37Rv ATCC 27294 assessed as inhibition of bacterial growth cultured in Middlebrook 7H9/ADC/Tween 80 medium for 2 weeks; assay type: functional; conditions: H37Rv ATCC 27294, 336 h
[18] = Cytotoxicity against human HepG2 cells assessed as reduction in cell viability incubated for 24 hrs in DMEM/10% FBS supplemented with glucose by CellTiter-Glo luminescent assay; assay type: toxicity, cell-based
[19] = system: Mycobacterium tuberculosis; assay: Antitubercular activity against Mycobacterium tuberculosis K16b00DS assessed as inhibition of bacterial growth incubated for 2 weeks; assay type: functional; conditions: 336 h
[20] = system: Mycobacterium tuberculosis; assay: Antitubercular activity against Mycobacterium tuberculosis K10b00DS assessed as inhibition of bacterial growth incubated for 2 weeks; assay type: functional; conditions: 336 h
[21] = system: Mycobacterium tuberculosis; assay: Antitubercular activity against Mycobacterium tuberculosis CDC1551 assessed as inhibition of bacterial growth incubated for 2 weeks; assay type: functional; conditions: CDC1551, 336 h
[22] = system: Mycobacterium tuberculosis; assay: Antitubercular activity against Mycobacterium tuberculosis K14b00DS assessed as inhibition of bacterial growth incubated for 2 weeks; assay type: functional; conditions: 336 h
[23] = system: Mycobacterium tuberculosis; assay: Antitubercular activity against Mycobacterium tuberculosis K09b00DS assessed as inhibition of bacterial growth incubated for 2 weeks; assay type: functional; conditions: 336 h
[24] = system: Mycobacterium tuberculosis; assay: Antitubercular activity against Mycobacterium tuberculosis H37Rv ATCC 27294 assessed as inhibition of bacterial growth cultured in Middlebrook 7H9/glucose/casitone/tyloxapol medium for 2 weeks; assay type: functional; conditions: H37Rv ATCC 27294, 336 h
[25] = system: Mycobacterium tuberculosis; assay: Induction of DNA damage in Mycobacterium tuberculosis H37Rv transfected with PrecA-LUX reporter assessed as induction of recA reporter gene expression incubated for 12 days by bioluminescence analysis; assay type: functional, organism-based; conditions: time 12.0 day
[26] = system: Mycobacterium tuberculosis; assay: Antitubercular activity against Mycobacterium tuberculosis Erdman assessed as inhibition of bacterial growth incubated for 2 weeks; assay type: functional; conditions: 336 h
[27] = system: Mycobacterium tuberculosis; assay: Antitubercular activity against Mycobacterium tuberculosis K15b00DS assessed as inhibition of bacterial growth incubated for 2 weeks; assay type: functional; conditions: 336 h
[28] = system: Mycobacterium tuberculosis; assay: Antitubercular activity against Mycobacterium tuberculosis K35b00DS assessed as inhibition of bacterial growth incubated for 2 weeks; assay type: functional; conditions: 336 h
[29] = system: Mycobacterium tuberculosis; assay: Antitubercular activity against Mycobacterium tuberculosis K12b00DS assessed as inhibition of bacterial growth incubated for 2 weeks; assay type: functional; conditions: 336 h
[30] = molecular target: T1, Decaprenylphosphoryl-beta-D-ribose oxidase (Mycobacterium tuberculosis (strain ATCC 25618 / H37Rv)) (UniProt P9WJF1); assay: Inhibition of DprE1-mediated cell wall synthesis in Mycobacterium tuberculosis H37Rv transfected with PiniB-LUX reporter assessed as induction of reporter gene expression incubated for 12 days by bioluminescence analysis; conditions: time 12.0 day
T1 sequence (whole entry): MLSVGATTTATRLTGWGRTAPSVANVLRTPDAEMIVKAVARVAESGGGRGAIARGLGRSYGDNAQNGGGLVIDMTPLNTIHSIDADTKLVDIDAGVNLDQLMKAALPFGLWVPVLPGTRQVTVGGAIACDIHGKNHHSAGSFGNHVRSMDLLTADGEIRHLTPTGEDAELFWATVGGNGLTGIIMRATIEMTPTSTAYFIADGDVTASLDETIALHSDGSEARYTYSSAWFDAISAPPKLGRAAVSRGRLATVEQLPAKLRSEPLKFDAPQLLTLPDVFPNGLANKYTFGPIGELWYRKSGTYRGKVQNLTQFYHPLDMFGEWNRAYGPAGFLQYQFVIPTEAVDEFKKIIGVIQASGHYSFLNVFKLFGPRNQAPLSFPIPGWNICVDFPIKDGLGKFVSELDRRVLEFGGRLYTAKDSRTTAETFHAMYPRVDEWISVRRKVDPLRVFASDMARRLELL

[31] = system: Mycobacterium tuberculosis; assay: Antitubercular activity against Mycobacterium tuberculosis clinical strain K5072429 assessed as inhibition of bacterial growth incubated for 2 weeks; assay type: functional; conditions: K5072429, 336 h

For O=C(C1CCN(c2nnc(-c3ccccc3)o2)CC1)N1CCC(Cc2ccccc2)CC1, the Activity [1] was “inactive”, the MIC [2] was 0.78 µM (≈ 0.336 µg/mL) and the MIC [3] was 0.6 µM (≈ 0.258 µg/mL). It also gave an MIC [4] of 0.78 µM (≈ 0.336 µg/mL), an MIC [5] of 0.78 µM (≈ 0.336 µg/mL) and an MIC [6] of 0.78 µM (≈ 0.336 µg/mL). The MIC [7] was 1.56 µM (≈ 0.672 µg/mL), the Activity [8] was “Active” and the MIC [9] was 0.78 µM (≈ 0.336 µg/mL). The MIC [10] was 0.6 µM (≈ 0.258 µg/mL), the IC50 at 24 h [11] was 37.5 µM and the MIC [12] was 1.2 µM (≈ 0.517 µg/mL). For the same compound, the MIC [13] was 1.2 µM (≈ 0.517 µg/mL), the MIC [14] was 0.6 µM (≈ 0.258 µg/mL) and the MIC [15] was 0.78 µM (≈ 0.336 µg/mL). It also gave an MIC [16] of 1.2 µM (≈ 0.517 µg/mL), an MIC [17] of 0.78 µM (≈ 0.336 µg/mL) and an IC50 at 24 h [18] of over 50 µM. It also gave an MIC [19] of 0.78 µM (≈ 0.336 µg/mL), an MIC [20] of 1.2 µM (≈ 0.517 µg/mL) and an MIC [21] of 0.6 µM (≈ 0.258 µg/mL). The MIC [22] was 1.2 µM (≈ 0.517 µg/mL), the MIC [23] was 1.2 µM (≈ 0.517 µg/mL) and the MIC [24] was 0.1 µM (≈ 0.0431 µg/mL). The Activity [25] was “inactive”, the MIC [26] was 0.39 µM (≈ 0.168 µg/mL) and the MIC [27] was 0.78 µM (≈ 0.336 µg/mL). The MIC [28] was 1.2 µM (≈ 0.517 µg/mL), the MIC [29] was 1.56 µM (≈ 0.672 µg/mL) and the inhibition [30] was “Active”. For the same compound, the MIC [31] was 2.3 µM (≈ 0.99 µg/mL).
